Patent US6916925B1, “Dye labeled imidazoquinoline compounds” (3M Innovative Properties Co., priority 1999, dated 2005)

Assays:
[1] = test system: human peripheral blood mononuclear cells; assay: Flow Cytometry Analysis: binding to mononuclear cells by fluorescence; type: cell-based; conditions: for binding to human peripheral blood mononuclear cells (fluorescence intensity histogram): FACScan flow cytometer
Experimental: Whole blood was collected by venipuncture into EDTA vacutainer tubes from healthy human donors. PBMCs were separated from whole blood by ficoll hypaque (Sigma Chemicals, St. Louis, Mo.) density gradient centrifugation as described in Testerman. The PBMCs were suspended at 2×10^6 cells/mL in RPMI 1640 medium containing 10% fetal bovine serum, 2 mM L-glutamine and penicillin/streptomycin solution (RPMI complete). […] Following incubation the cells were washed two times with staining buffer (Dulbecco's Phosphate Buffered Saline without calcium and magnesium, 1% heat inactivated fetal bovine serum, and 0.1% sodium azide). The cells were suspended in staining buffer and transferred to 12×75 mm polystyrene tubes for analysis by flow cytometry. Binding to mononuclear cells was determined by fluorescence using a FACScan flow cytometer (purchased from Becton Dickinson).
The histograms of FIGS. 1 and 2 plot the fluorescence intensity with the more highly fluorescent cell populations being seen further to the right. The peak area labeled as M3 in the histograms indicates the fluorescence binding to the monocyte population in the peripheral blood mononuclear cells.

[2] = test system: Peripheral blood mononuclear cells (PBMCs); assay: Cytokine Induction in Human Cells, Test Method 1 (IFN by A549/encephalomyocarditis bioassay, TNF by ELISA); type: cell-based; conditions: 24 hours
Excerpt: An in vitro human blood cell system is used to assess cytokine induction by compounds of the invention. Activity is based on the measurement of interferon and tumor necrosis factor (α) (IFN and TNF, respectively) secreted into culture media as described by Testerman et. al. in “Cytokine Induction by the Immunomodulators Imiquimod and S27609”, Journal of Leukocyte Biology, 58, 365-372 (September, 1995).
Whole blood from healthy human donors is collected by venipuncture into EDTA vacutainer tubes. Peripheral blood mononuclear cells (PBMCs) are separated from whole blood by Histopaque®-1077 (Sigma Chemicals, St. Louis, Mo.) density gradient centrifugation. The PBMCs are washed twice with Hank's Balanced Salts Solution (Sigma) and are then suspended at 2×10^6 cells/mL in RPMI 1640 medium containing 10% fetal bovine serum, 2 mM L-glutamine and 1% penicillin/streptomycin solution (RPMI complete). 1 mL portions of PBMC suspension are added to 12 or 24 well flat bottom sterile tissue culture plates.
The compounds are solubilized in ethanol, dimethyl sulfoxide or pyrogen free water then diluted with tissue culture water, 0.01N sodium hydroxide or 0.01N hydrochloric acid (The choice of solvent will depend on the chemical characteristics of the compound being tested.). Ethanol or DMSO concentration should not exceed a final concentration of 1% for addition to the culture wells. The compounds are generally tested using a concentration range from about 0.01 μg/mL to about 50 μg/mL.
The solution of test compound is added to the wells containing 1 ml of PBMCs in media. The plates are covered with plastic lids, mixed gently and then incubated for 24 hours at 37° C. with a 5% carbon dioxide atmosphere.
Following incubation the cell-free culture supernatant is removed with a sterile polypropylene pipet and transferred to a 12×75 mm polypropylene tube. The tubes are then centrifuged at 1000 rpm ([…]) for 10 to 15 minutes at 4° C. The supernatant is removed and placed into 2 mL sterile freezing vials. Samples are maintained at −70° C. until analyzed for cytokines.
Interferon concentrations are determined by bioassay using A549 human lung carcinoma cells challenged with encephalomyocarditis. The details of the bioassay method have been described by G. L. Brennan and L. H. Kronenberg in “Automated Bioassay of Interferons in Micro-test Plates”, Biotechniques, June/July, 78, 1983, incorporated herein by reference. Briefly stated the method is as follows: A549 cells are incubated with dilutions of IFN standard or test samples at 37° C. for 24 hours. The incubated cells are then infected with an inoculum of encephalomyocarditis virus. The infected cells are incubated for an additional 24 hours at 37° C. before quantifying for viral cytopathic effect. The viral cytopathic effect is quantified by staining of the wells with a vital dye such as crystal violet followed by visual scoring of the plates. Results are expressed as alpha reference units/mL based on the value obtained for an NIH Human Leukocyte IFN standard.
Tumor necrosis factor (α) (TNF) concentration is determined using an ELISA kit available from Genzyrne, Cambridge, Mass. The results are expressed as pg/ml.
The labeled compound of Example 1 and the unlabeled intermediate (2-(4-amino-2-ethoxymethyl-1H-imidazo[4,5-c]quinolin-1-yl)ethaneamine trihydrochloride) were tested side by side for their ability to induce cytokine biosynthesis using Test Method 1 described above. The compound of Example 1 was solubilized in ethanol. The unlabeled intermediate was solubilized in tissue culture water.

[3] = test system: Peripheral blood mononuclear cells (PBMCs); assay: Cytokine Induction in Human Cells, Test Method 2 (IFN-α and TNF-α by ELISA); type: cell-based; parameters: key: +: indicates that the compound induced the indicated cytokine at that particular concentration; −: indicates that the compound did not induce the indicated cytokine at that particular concentration; conditions: 18 to 24 hours
Excerpt: An in vitro human blood cell system is used to assess cytokine induction. Activity is based on the measurement of interferon and tumor necrosis factor (α) (IFN and TNF, respectively) secreted into culture media as described by Testerman et. al. In “Cytokine Induction by the Immunomodulators Imiquimod and S-27609”, Journal of Leukocyte Biology, 58, 365-372 (September, 1995).
Whole blood from healthy human donors is collected by venipuncture into EDTA vacutainer tubes. Peripheral blood mononuclear cells (PBMCs) are separated from whole blood by density gradient centrifugation using Histopaque®-1077. The PBMCs are washed twice with -Hank's Balanced Salts Solution and then are suspended at 3-4×10^6 cells/mL in RPMI complete. The PBMC suspension is added to 48 well flat bottom sterile tissue culture plates (Costar, Cambridge, Mass. or Becton Dickinson Labware, Lincoln Park, N.J.) containing an equal volume of RPMI complete media containing test compound.
The compounds are solubilized in dimethyl sulfoxide (DMSO). The DMSO concentration should not exceed a final concentration of 1% for addition to the culture wells. The compounds are generally tested at concentrations ranging from 0.12 to 30 μM.
The solution of test compound is added at 60 μM to the first well containing RPMI complete and serial 3 fold dilutions are made in the wells. The PBMC suspension is then added to the wells in an equal volume, bringing the test compound concentrations to the desired range (0.12 to 30 μM). The final concentration of PBMC suspension is 1.5-2×10^6 cells/mL. The plates are covered with sterile plastic lids, mixed gently and then incubated for 18 to 24 hours at 37° C. in a 5% carbon dioxide atmosphere.
Following incubation the plates are centrifuged for 5-10 minutes at 1000 rpm (˜200×g) at 4° C. The cell-free culture supernatant is removed with a sterile polypropylene pipet and transferred to sterile polypropylene tubes. Samples are maintained at −30 to −70° C. until analysis. The samples are analyzed for interferon (α) and for tumor necrosis factor (α) by ELISA
Interferon (α) concentration is determined by ELISA using a Human Multi-Species kit from PBL Biomedical Laboratories, New Brunswick, N.J. Results are expressed in pg/mL.
Tumor necrosis factor (α) (TNF)concentration is determined using ELISA kits available from Genzyme, Cambridge, Mass.; R&D Systems, Minneapolis, Minn.; or Phanningen, San Diego, Calif. Results are expressed in pg/mL.
The labeled compounds of Examples 2 and 3 were tested for their ability to induce cytokine biosynthesis using Test Method 2 described above.

In the case of `Cc1cc(C)n2c1C=C1C=CC(CCC(=O)NCCCCCC(=O)ON3C(=O)CCC3=O)=[N+]1[B-]2(F)F` [BODIPY fluorophore, 6-((4,4-difluoro-5,7-dimethyl4-bora-3a,4a-diaza-s-indacene-3-propionyl)amino)hexanoic acid, succinimidyl ester, reference compound], the “binding to human peripheral blood mononuclear cells (fluorescence intensity histogram)” value ([1]; incubated 1 hour at 37° C.) is reported as “does not”.
For `CCOCc1nc2c(N)nc3ccccc3c2n1CCNC(=O)CCCCCNC(=O)CCc1ccc2n1[B-](F)(F)[N+]1=C(C)C=C(C)C1=C2` [Example 1, N-[2-(4-Amino-2-ethoxymethyl-1H-imidazo[4,5-c]quinolin-1-yl)ethyl]-6-[(4,4-difluoro-5,7-dimethyl-4-bora-3a,4a-diaza-s-indacene-3-propionyl)amino]hexanoamide], the IFN ([2]; concentration 0.01 μg/ml) was 16 U/ml, the TNF ([2]; concentration 0.01 μg/ml) was 0 pg/mL and the IFN ([2]; concentration 0.03 μg/ml) was 47 U/ml. The TNF ([2]; concentration 0.03 μg/ml) was 42 pg/mL, the IFN ([2]; concentration 0.1 μg/ml) was 554 U/ml and the TNF ([2]; concentration 0.1 μg/ml) was 46 pg/mL. It also gave an IFN ([2]; concentration 0.3 μg/ml) of 2878 U/ml, a TNF ([2]; concentration 0.3 μg/ml) of 73 pg/mL and an IFN ([2]; concentration 1 μg/ml) of 421 U/ml. The TNF ([2]; concentration 1 μg/ml) was 369 pg/mL, the IFN ([2]; concentration 3 μg/ml) was 62 U/ml and the TNF ([2]; concentration 3 μg/ml) was 869 pg/mL. The “binding to human peripheral blood mononuclear cells (fluorescence intensity histogram)” value ([1]; incubated 1 hour at 37° C.) was “binds to human peripheral blood mononuclear cells”, the “binding to monocytes compared with other PBMCs” value ([1]; incubated 1 hour at 37° C., peak area M3 = monocyte population) was “monocytes bind more effectively than other PBMCs” and the binding to monocytes ([1]; incubated with human PBMCs at 4° C. for 1 hour) was “did not show significant binding”.
In the case of `COCCc1nc2c(N)nc3ccccc3c2n1CCCCNC(=S)Nc1ccc(-c2c3ccc(=O)cc-3oc3cc(O)ccc23)c(C(=O)O)c1` [Example 2], the melting point is reported as greater than 245 °C, the IFN induction ([3]; concentration 0.014 μg/ml) is reported as “−” and the TNF induction ([3]; concentration 0.014 μg/ml) is reported as “−”. For the same compound, the IFN induction ([3]; concentration 0.041 μg/ml) was “−”, the TNF induction ([3]; concentration 0.041 μg/ml) was “−” and the IFN induction ([3]; concentration 0.12 μg/ml) was “−”. For the same compound, the TNF induction ([3]; concentration 0.12 μg/ml) was “−”, the IFN induction ([3]; concentration 0.37 μg/ml) was “−” and the TNF induction ([3]; concentration 0.37 μg/ml) was “−”. The IFN induction ([3]; concentration 1.11 μg/ml) was “−”, the TNF induction ([3]; concentration 1.11 μg/ml) was “−” and the IFN induction ([3]; concentration 3.33 μg/ml) was “−”. The TNF induction ([3]; concentration 3.33 μg/ml) was “+”, the IFN induction ([3]; concentration 10 μg/ml) was “+” and the TNF induction ([3]; concentration 10 μg/ml) was “+”. The IFN induction ([3]; concentration 30 μg/ml) was “+” and the TNF induction ([3]; concentration 30 μg/ml) was “+”.
With `CCCCc1nc2c(N)nc3ccccc3c2n1CCNC(=S)Nc1ccc(-c2c3ccc(=O)cc-3oc3cc(O)ccc23)c(C(=O)O)c1` [Example 3, 5-{[({2-[4-Amino-2-butyl-1H-imidazo[4,5-c]quinolin-1-yl]ethyl}amino)carbonthioyl]amino}-2-(6-hydroxy-3-oxo-3H-xanthen-9-yl)benzoic Acid] the melting point was greater than 245 °C, the IFN induction ([3]; concentration 0.014 μg/ml) was “−” and the TNF induction ([3]; concentration 0.014 μg/ml) was “−”. The IFN induction ([3]; concentration 0.041 μg/ml) was “−”, the TNF induction ([3]; concentration 0.041 μg/ml) was “−” and the IFN induction ([3]; concentration 0.12 μg/ml) was “−”. For the same compound, the TNF induction ([3]; concentration 0.12 μg/ml) was “−”, the IFN induction ([3]; concentration 0.37 μg/ml) was “−” and the TNF induction ([3]; concentration 0.37 μg/ml) was “−”. For the same compound, the IFN induction ([3]; concentration 1.11 μg/ml) was “−”, the TNF induction ([3]; concentration 1.11 μg/ml) was “−” and the IFN induction ([3]; concentration 3.33 μg/ml) was “−”. For the same compound, the TNF induction ([3]; concentration 3.33 μg/ml) was “−”, the IFN induction ([3]; concentration 10 μg/ml) was “+” and the TNF induction ([3]; concentration 10 μg/ml) was “−”. For the same compound, the IFN induction ([3]; concentration 30 μg/ml) was “+” and the TNF induction ([3]; concentration 30 μg/ml) was “+”.
With `CCOCc1nc2c(N)nc3ccccc3c2n1CCN.Cl.Cl.Cl` [Unlabeled Intermediate, 2-(4-amino-2-ethoxymethyl-1H-imidazo[4,5-c]quinolin-1-yl)ethaneamine trihydrochloride] the IFN ([2]; concentration 0.1 μg/ml) was 421 U/ml, the TNF ([2]; concentration 0.1 μg/ml) was 0 pg/mL and the IFN ([2]; concentration 0.3 μg/ml) was 2878 U/ml. The TNF ([2]; concentration 0.3 μg/ml) was 0 pg/mL, the IFN ([2]; concentration 1 μg/ml) was 2878 U/ml and the TNF ([2]; concentration 1 μg/ml) was 49 pg/mL. It also gave an IFN ([2]; concentration 3 μg/ml) of 81 U/ml, a TNF ([2]; concentration 3 μg/ml) of 538 pg/mL and an IFN ([2]; concentration 10 μg/ml) of 140 U/ml. It also gave a TNF ([2]; concentration 10 μg/ml) of 2640 pg/mL.
